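Compound exposure: 48 hours, 5 concentrations, 96-well plates. GI50 = concentration required for 50% inhibition of growth.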 Activity calls are given as the source filed them. No stated cut-off is given here; in the data, active = GI50 up to about 1.1 µM and inactive = higher. Residues, ends and D or L forms follow the SMILES beside them. *: point of attachment. X38 = O=C(c1ccc(-c2ccc(Cl)cc2Cl)o1)*
Key:
Experiment in all cases: NCI-60 cell line screen, 48 h
[1] = tested on: KM12
[2] = tested on: ACHN
[3] = tested on: HCT-15
[4] = tested on: EKVX
[5] = tested on: SNB-19
[6] = tested on: SK-MEL-2
[7] = tested on: MDA-MB-231
[8] = tested on: T47D
[9] = tested on: IGROV-1
[10] = tested on: NCI-H226
[11] = tested on: MDA-MB-435
[12] = tested on: COLO 205
[13] = tested on: HT-29
[14] = tested on: BT-549
[15] = tested on: MCF7
[16] = tested on: RPMI-8226
[17] = tested on: PC-3
[18] = tested on: M14
[19] = tested on: UACC-257
[20] = tested on: SNB-75

Compound | GI50 [1] | GI50 [2] | GI50 [3] | GI50 [4] | GI50 [5] | GI50 [6] | GI50 [7] | GI50 [8] | GI50 [9] | GI50 [10] | GI50 [11] | GI50 [12] | GI50 [13] | GI50 [14] | GI50 [15] | GI50 [16] | GI50 [17] | GI50 [18] | GI50 [19] | GI50 [20]
COc1cc(/C=C/c2nc(N)nnc2C)cc(OC)c1OC | 10.9 µM (inactive) | 15.5 µM (inactive) | 4.04 µM | 18.1 µM (inactive) | 23.4 µM (inactive) | > 37.9 µM (inactive) | > 84.1 µM (inactive) | 12.1 µM (inactive) | 15.6 µM (inactive) | 10.1 µM (inactive) | 9.33 µM (inactive) | 10.3 µM (inactive) | 10.6 µM (inactive) | 20.5 µM (inactive) | 4.8 µM (inactive) | 14.1 µM (inactive) | 11.4 µM (inactive) | 33.3 µM (inactive) | 37.7 µM (inactive) | –
C=C1C(=O)O[C@H]2C1C[C@@H](O)/C(C)=C/CC[C@@]1(C)O[C@H]21 (stereo not given in full) | > 100 µM (inactive) | 9.27 µM (inactive) | 12.1 µM | 12.2 µM (inactive) | 52 µM (inactive) | 24.3 µM (inactive) | 18.6 µM (inactive) | 9.12 µM (inactive) | 12.7 µM (inactive) | > 54.3 µM (inactive) | 8.2 µM (inactive) | 4.93 µM (inactive) | 22.9 µM (inactive) | 8.04 µM (inactive) | 8.57 µM (inactive) | 4.76 µM (inactive) | 23 µM (inactive) | 9.35 µM (inactive) | 13.1 µM (inactive) | 16.4 µM (inactive)
O=C1NC(=O)[C@@]2(CC[C@@H](O)C2)c2ccncc21 [SESBANINE] | > 100 µM (inactive) | > 100 µM (inactive) | > 100 µM | > 100 µM (inactive) | > 100 µM (inactive) | > 100 µM (inactive) | > 100 µM (inactive) | > 100 µM (inactive) | > 100 µM (inactive) | > 100 µM (inactive) | > 100 µM (inactive) | > 100 µM (inactive) | > 100 µM (inactive) | > 100 µM (inactive) | > 100 µM (inactive) | – | > 100 µM (inactive) | > 100 µM (inactive) | > 100 µM (inactive) | > 100 µM (inactive)
CCCC[P+](CCCC)(CCCC)C(C(=O)OC)C(C(=O)OC)=C1SC(C(=O)OC)=C(C(=O)OC)S1 (stereo not given) | – | > 100 µM (inactive) | > 100 µM | > 100 µM (inactive) | > 100 µM (inactive) | > 100 µM (inactive) | > 100 µM (inactive) | > 100 µM (inactive) | > 100 µM (inactive) | > 100 µM (inactive) | > 100 µM (inactive) | > 100 µM (inactive) | > 100 µM (inactive) | > 100 µM (inactive) | > 100 µM (inactive) | > 100 µM (inactive) | > 100 µM (inactive) | > 100 µM (inactive) | > 100 µM (inactive) | > 100 µM (inactive)
NCC1OC(n2cnc3c(=O)[nH]c(N)nc32)C(O)C1O (stereo not given) | > 100 µM (inactive) | > 100 µM (inactive) | > 100 µM | > 100 µM (inactive) | > 100 µM (inactive) | > 100 µM (inactive) | > 100 µM (inactive) | 97.1 µM (inactive) | > 100 µM (inactive) | > 100 µM (inactive) | > 100 µM (inactive) | > 100 µM (inactive) | > 100 µM (inactive) | > 100 µM (inactive) | 95.5 µM (inactive) | 2.13 µM (inactive) | > 100 µM (inactive) | > 100 µM (inactive) | > 100 µM (inactive) | –
COC(=O)C(CC(C)C)NC(=O)C(Cc1ccccc1)NC(=O)C1CCCN1C(=O)C(CO)NC(=O)c1ccc(-c2ccc(Cl)cc2Cl)o1 (stereo not given) (X38-SPFL-OMe; configuration not given here) | 34 µM (inactive) | 26.5 µM (inactive) | 24 µM | – | 21.9 µM (inactive) | 16.9 µM (inactive) | 15.5 µM (inactive) | 28.9 µM (inactive) | – | 19.1 µM (inactive) | 28.3 µM (inactive) | 16 µM (inactive) | 17.6 µM (inactive) | 25.6 µM (inactive) | 27.5 µM (inactive) | 17.1 µM (inactive) | 31.6 µM (inactive) | 19.9 µM (inactive) | 20.2 µM (inactive) | 25.7 µM (inactive)
CC(C)(O)c1cc2c(cc1C(C)(C)O)-c1ccccc1-2 | > 100 µM (inactive) | 85.3 µM (inactive) | > 100 µM | 59.7 µM (inactive) | > 100 µM (inactive) | > 100 µM (inactive) | > 100 µM (inactive) | > 100 µM (inactive) | > 100 µM (inactive) | > 100 µM (inactive) | > 100 µM (inactive) | > 100 µM (inactive) | – | > 100 µM (inactive) | > 100 µM (inactive) | > 100 µM (inactive) | > 100 µM (inactive) | > 100 µM (inactive) | > 100 µM (inactive) | 29.2 µM (inactive)
COc1ccc(-c2nc(-c3ccc(OC)cc3)n(-c3ccccc3)n2)cc1 | 40.2 µM (inactive) | > 100 µM (inactive) | > 100 µM | 56.4 µM (inactive) | 57.8 µM (inactive) | > 100 µM (inactive) | 50.2 µM (inactive) | 22.9 µM (inactive) | > 100 µM (inactive) | > 100 µM (inactive) | > 100 µM (inactive) | 46.9 µM (inactive) | 19.9 µM (inactive) | 38.5 µM (inactive) | > 100 µM (inactive) | – | > 100 µM (inactive) | 68.7 µM (inactive) | > 100 µM (inactive) | > 100 µM (inactive)
COc1cc2c[n+](C)c3c4ccccc4ccc3c2cc1OC | 0.452 µM (active) | 35.9 µM (inactive) | > 100 µM | 2.54 µM (inactive) | 2.44 µM (inactive) | 5.69 µM (inactive) | 5.05 µM (inactive) | 2.06 µM (inactive) | – | 2.94 µM (inactive) | 3.83 µM (inactive) | 0.991 µM (active) | 5.4 µM (inactive) | 2.92 µM (inactive) | 3.66 µM (inactive) | 3.05 µM (inactive) | 4.89 µM (inactive) | 18.1 µM (inactive) | 3.73 µM (inactive) | 5.89 µM (inactive)
O=C1C/C(=N/c2ccc(Cl)cc2)C(c2ccccc2)N1c1ccccc1 (stereo not given) | 6.61 µM (inactive) | 6.43 µM (inactive) | 5.92 µM | > 100 µM (inactive) | 19.9 µM (inactive) | 2.7 µM (inactive) | 7.21 µM (inactive) | 1.38 µM (inactive) | 18.2 µM (inactive) | 10.1 µM (inactive) | 2.15 µM (inactive) | 3.66 µM (inactive) | 5.62 µM (inactive) | 5.28 µM (inactive) | 10 µM (inactive) | 2.28 µM (inactive) | 3.28 µM (inactive) | 5.9 µM (inactive) | 17.4 µM (inactive) | –
CN(C)Cc1cc(C(C)(C)C)cc(CN(C)C)c1O | 70.8 µM (inactive) | 65.3 µM (inactive) | 30.4 µM | 40.6 µM (inactive) | > 100 µM (inactive) | > 100 µM (inactive) | 92.5 µM (inactive) | > 100 µM (inactive) | > 100 µM (inactive) | – | > 100 µM (inactive) | 35.8 µM (inactive) | 35.8 µM (inactive) | > 100 µM (inactive) | 96.2 µM (inactive) | > 100 µM (inactive) | 77.8 µM (inactive) | > 100 µM (inactive) | > 100 µM (inactive) | > 100 µM (inactive)
CC(=O)Oc1ccccc1-c1cc2ccccc2oc1=O | > 100 µM (inactive) | > 100 µM (inactive) | > 100 µM | 63.5 µM (inactive) | > 100 µM (inactive) | > 100 µM (inactive) | > 100 µM (inactive) | 97.7 µM (inactive) | – | 31 µM (inactive) | > 100 µM (inactive) | > 100 µM (inactive) | > 100 µM (inactive) | > 100 µM (inactive) | > 100 µM (inactive) | > 100 µM (inactive) | > 100 µM (inactive) | > 100 µM (inactive) | > 100 µM (inactive) | 32.8 µM (inactive)
O=C1c2cc3ccccc3cc2C2(c3ccc(Cl)cc3)N[C@H]3CCCC[C@@H]3N12 (stereo not given in full) | 16.9 µM (inactive) | 15.2 µM (inactive) | 21.6 µM | 10.9 µM (inactive) | 13.7 µM (inactive) | 16.4 µM (inactive) | 13.3 µM (inactive) | 7.4 µM (inactive) | 13.3 µM (inactive) | – | 21.9 µM (inactive) | 15.3 µM (inactive) | 14.4 µM (inactive) | 20 µM (inactive) | 24.7 µM (inactive) | 18.4 µM (inactive) | 14.9 µM (inactive) | 2.59 µM (inactive) | 19.4 µM (inactive) | 16.5 µM (inactive)
O=C1CC[C@@]2(O)[C@H]3Cc4ccc(-c5ccccc5)c5c4[C@@]2(CCN3CC2CC2)[C@H]1O5 | 18.9 µM (inactive) | 20.6 µM (inactive) | 16.8 µM | 19.6 µM (inactive) | 25.5 µM (inactive) | 17.9 µM (inactive) | 15.2 µM (inactive) | 17 µM (inactive) | 27.2 µM (inactive) | 20.3 µM (inactive) | 13.2 µM (inactive) | 17.7 µM (inactive) | 13.7 µM (inactive) | 14.3 µM (inactive) | 18.2 µM (inactive) | 15.4 µM (inactive) | 19 µM (inactive) | 17.6 µM (inactive) | 16 µM (inactive) | –
C=CCN(Cc1ccncc1)C(=O)C(O)(c1ccccc1)c1ccccc1 | 35.2 µM (inactive) | > 100 µM (inactive) | 65.9 µM | 35.9 µM (inactive) | 95.7 µM (inactive) | – | > 100 µM (inactive) | 39.9 µM (inactive) | > 100 µM (inactive) | > 100 µM (inactive) | 17.3 µM (inactive) | 45.8 µM (inactive) | 59.3 µM (inactive) | 11.8 µM (inactive) | 59.3 µM (inactive) | 22 µM (inactive) | 37.2 µM (inactive) | 56 µM (inactive) | 79.3 µM (inactive) | 85.9 µM (inactive)
